Literature values in patent US7220859B2, “Bicyclic heterocycles as cannabinoid receptor modulators” (Bristol-Myers Squibb Company, priority 2005, dated 2007).

Details: 16 week trial period

Which “body weight in human subjects” value does the source give for `Cc1c(C(=O)NN2CCCCC2)nn(-c2ccc(Cl)cc2Cl)c1-c1ccc(Cl)cc1` [SR-141716] here?
Its value is “dose-dependently reduced body weight”.
